“Also recorded” adds a separate entry of the source.
Columns and labels:
Type in all cases: cell-based
DCIS.com cells [1] = assay: 2D hydrogel matrix-based invasion assay; conditions: crowded DCIS.com cells treated with TSA vs vehicle
Excerpt: FIGS. 6A-6G depict images illustrating 2D hydrogel-based invasion assays. […] Percent (%) invading cells was calculating by dividing this value by the total number of spots. […] Scale bar=100 μm (FIGS. 6B-6E) and 10 μm (FIGS. 6F-6G).
To compare the invasive potential of live cells between different treatment groups, exemplary methods herein established a hydrogel matrix-based invasion assay (FIG. 6A). This assay was used to quantify the invasive cell fraction as a percentage of the total, based on fluorescence imaging results (FIGS. 6B-6E). Since cell stiffness is modulated by the stiffness of the surroundings [the values for normal breast versus DCIS cells are known to be ˜0.1 versus ˜10 kPa], the hydrogel matrix could be stiffness-controlled within the range specified above, as confirmed by nanoindenter measurements.
(§1) Also assessed were two independent possibilities for crowding-mediated increased invasiveness: YAP-association and cell cycle arrest (high-density cells are subject to G1 arrest).

DCIS.com cells [2] = assay: Cell cycle arrest in crowded DCIS.com cells; conditions: crowded DCIS cells treated with TSA vs vehicle
Excerpt: FIGS. 11A-11D depict images and graphs illustrating independent possibilities for crowding-mediated increased invasiveness. […] FIGS. 11C-11D show images of DCIS.com cell invasiveness after treatment with vehicle or TSA (FIG. 11C) and the percentage of invasive cells per treatment group (FIG. 11D).
as §1

ATP1a1 = biological target: T1, ATP1a1 (Homo sapiens, UniProt P05023); assay: Immunofluorescence imaging of plasma membrane ATP1A1 localization in overconfluent DCIS.com cells; conditions: OC DCIS.com cells; 20 nM lithium bicarbonate or 100 nM ouabain, 24 hours; IF images
T1 construct: endogenous in cells; host or cells: MCF10DCIS.com (DCIS.com) cells, overconfluent
Excerpt: FIGS. 4A-4B depict images illustrating ion channel enrichment in DCIS plasma membranes. […] Transferrin receptor (TfR) distribution was insensitive to cell crowding. IF images. […] Scale bar=10 μm.
Crowding-induced cell volume changes typically occur under isotonic conditions and are accompanied by the efflux of intracellular osmolytes through ion channels. Methods herein assessed if ion channel activities were altered when cells are crowded.

CC(/C=C/C(=O)NO)=C\[C@@H](C)C(=O)c1ccc(N(C)C)cc1 [Trichostatin A]
invasiveness of DCIS.com cells (percentage of invasive cells) (DCIS.com cells [1]): did not decrease the invasiveness | cell cycle arrest (DCIS.com cells [2]): reversed the cell cycle arrest

O=C([O-])O.[Li+] [lithium bicarbonate]
PM ATP1a1 localization / PM abundance of ion channels (ATP1a1): the perturbation was less obvious

C[C@@H]1O[C@@H](O[C@H]2C[C@@H](O)[C@]3(CO)[C@H]4[C@H](O)C[C@]5(C)[C@@H](C6=CC(=O)OC6)CC[C@]5(O)[C@@H]4CC[C@]3(O)C2)[C@H](O)[C@H](O)[C@H]1O [ouabain]
PM ATP1a1 localization / PM abundance of ion channels (ATP1a1): the PM abundance of ion channels was perturbed; also recorded: perturbed PM ATP1a1 localization

— patent US12013398B2, “Compositions and methods for treatment of invasive cancers” (The George Washington University, priority 2021, dated 2024)
